# Experimental data from US20210045385A1, “PYRIDAZINONE-SUBSTITUTED KETOXIMES AS HERBICIDES” (FMC Corporation, priority 2018, published 2021).
# How the values were obtained:
# Assay type in all cases: in vivo
# [1] = test system: Italian ryegrass (Lolium mutiflorum); assay: Test C preemergence, visual plant response rating
# Method in brief: (§1)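 Visual injury on a 0 (no effect) to 100 (complete control) scale versus untreated controls, scored approximately 10 d after treatment under greenhouse conditions. Treatments used surfactant-containing non-phytotoxic solvent formulations, sprayed onto loam–sand soil preemergence or onto one- to two-leaf plants 2–10 cm tall postemergence.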
# [2] = test system: barnyardgrass (Echinochloa crus-galli); assay: Test C preemergence, visual plant response rating
# Method in brief: as §1
# [3] = test system: foxtail, giant (giant foxtail, Setaria faberi); assay: Test C preemergence, visual plant response rating
# Method in brief: as §1
# kochia (Bassia scoparia) [4] = assay: Test C preemergence, visual plant response rating
# Method in brief: as §1
# [5] = test system: pigweed (Amaranthus retroflexus); assay: Test C preemergence, visual plant response rating
# Method in brief: as §1
# [6] = test system: Italian ryegrass (Lolium mutiflorum); assay: Test C postemergence, visual plant response rating
# Method in brief: as §1
# [7] = test system: barnyardgrass (Echinochloa crus-galli); assay: Test C postemergence, visual plant response rating
# Method in brief: as §1
# [8] = test system: blackgrass (Alopecurus myosuroides); assay: Test C postemergence, visual plant response rating
# Method in brief: as §1
# corn (Zea mays) = assay: Test C postemergence, visual plant response rating
# Method in brief: as §1
# [9] = test system: foxtail, giant (giant foxtail, Setaria faberi); assay: Test C postemergence, visual plant response rating
# Method in brief: as §1
# [10] = test system: galium (catchweed bedstraw, Galium aparine); assay: Test C postemergence, visual plant response rating
# Method in brief: as §1
# kochia (Bassia scoparia) [11] = assay: Test C postemergence, visual plant response rating
# Method in brief: as §1
# [12] = test system: pigweed (Amaranthus retroflexus); assay: Test C postemergence, visual plant response rating
# Method in brief: as §1
# [13] = test system: ragweed (common ragweed, Ambrosia artemisiifolia); assay: Test C postemergence, visual plant response rating
# Method in brief: as §1
# [14] = test system: wheat (Triticum aestivum); assay: Test C postemergence, visual plant response rating
# Method in brief: as §1
# [15] = test system: barnyardgrass (Echinochloa crus-galli); assay: Test D flooded paddy test, visual plant response rating; settings: 250 g ai/ha, scale 0 to 100 (0 no effect, 100 complete control), 13 to 15 d
# Method in brief: (§2)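 Visual injury scores, 0 (no effect) to 100 (complete control), were assigned after 13 to 15 d in the greenhouse by comparison with controls. Test compounds had been added to paddy water covering soil by 3 cm at the 2-leaf stage.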
# [16] = test system: duck salad (Heteranthera limosa); assay: as above; settings: 250 g ai/ha, scale 0 to 100 (0 no effect, 100 complete control), 13 to 15 d
# Method in brief: as §2
# rice (Oryza sativa) = assay: as above; settings: 250 g ai/ha, scale 0 to 100 (0 no effect, 100 complete control), 13 to 15 d
# Method in brief: as §2
# [17] = test system: sedge umbrella (small-flower umbrella sedge, Cyperus difformis); assay: as above; settings: 250 g ai/ha, scale 0 to 100 (0 no effect, 100 complete control), 13 to 15 d
# Method in brief: as §2
# [18] = Test C, 31 g ai/ha, 0 is no effect, 100 is complete control
# [19] = Test C, postemergence, 125 g ai/ha
SMILES,"Ryegrass, Italian plant response rating (0 to 100 scale) ([1]; 125 g ai/ha)","Ryegrass, Italian plant response rating (0 to 100 scale) [1, 18]",Barnyardgrass plant response rating (0 to 100 scale) ([2]; 125 g ai/ha),"Barnyardgrass plant response rating (0 to 100 scale) [2, 18]","Foxtail, Giant plant response rating (0 to 100 scale) ([3]; 125 g ai/ha)","Foxtail, Giant plant response rating (0 to 100 scale) [3, 18]",Kochia plant response rating (0 to 100 scale) (kochia (Bassia scoparia) [4]; 125 g ai/ha),Kochia plant response rating (0 to 100 scale) (kochia (Bassia scoparia) [4]; [18]),Pigweed plant response rating (0 to 100 scale) ([5]; 125 g ai/ha),"Pigweed plant response rating (0 to 100 scale) [5, 18]","Ryegrass, Italian plant response rating (0 to 100 scale) ([6]; Postemergence, 31 g ai/ha)","Ryegrass, Italian plant response rating (0 to 100 scale) [6, 19]","Barnyardgrass plant response rating (0 to 100 scale) ([7]; Postemergence, 31 g ai/ha)","Barnyardgrass plant response rating (0 to 100 scale) [7, 19]","Blackgrass plant response rating (0 to 100 scale) ([8]; Postemergence, 31 g ai/ha)","Blackgrass plant response rating (0 to 100 scale) [8, 19]","Corn plant response rating (0 to 100 scale) (corn (Zea mays); Postemergence, 31 g ai/ha)",Corn plant response rating (0 to 100 scale) (corn (Zea mays); [19]),"Foxtail, Giant plant response rating (0 to 100 scale) ([9]; Postemergence, 31 g ai/ha)","Foxtail, Giant plant response rating (0 to 100 scale) [9, 19]",other results
CCON=C(c1cc(Cl)cc(Br)c1)c1c(O)c(C)nn(C)c1=O [Compound 180],100,40,80,0,100,70,100,0,80,50,70,100,30,60,0,30,0,20,70,90,"Galium plant response rating (0 to 100 scale) ([10]; Postemergence, 31 g ai/ha): 90; Galium plant response rating (0 to 100 scale) [10, 19]: 100; Kochia plant response rating (0 to 100 scale) (kochia (Bassia scoparia) [11]; Postemergence, 31 g ai/ha): 80; Kochia plant response rating (0 to 100 scale) (kochia (Bassia scoparia) [11]; [19]): 90; Pigweed plant response rating (0 to 100 scale) ([12]; Postemergence, 31 g ai/ha): 10; Pigweed plant response rating (0 to 100 scale) [12, 19]: 70; Ragweed plant response rating (0 to 100 scale) ([13]; Postemergence, 31 g ai/ha): 100; Ragweed plant response rating (0 to 100 scale) [13, 19]: 100; Wheat plant response rating (0 to 100 scale) ([14]; Postemergence, 31 g ai/ha): 30; Wheat plant response rating (0 to 100 scale) [14, 19]: 50; Plant response rating, Barnyardgrass (Flood) [15]: 40; Plant response rating, Ducksalad (Flood) [16]: 60; Plant response rating, Rice (Flood) (rice (Oryza sativa)): 0; Plant response rating, Sedge, Umbrella (Flood) [17]: 65"
C#CCO/N=C(\c1cc(Cl)cc(Cl)c1Cl)c1c(O)c(C)nn(C)c1=O [Compound 187],100,40,100,70,100,80,90,0,90,60,70,100,30,70,0,0,0,20,50,80,"Galium plant response rating (0 to 100 scale) ([10]; Postemergence, 31 g ai/ha): 80; Galium plant response rating (0 to 100 scale) [10, 19]: 100; Kochia plant response rating (0 to 100 scale) (kochia (Bassia scoparia) [11]; Postemergence, 31 g ai/ha): 40; Kochia plant response rating (0 to 100 scale) (kochia (Bassia scoparia) [11]; [19]): 70; Pigweed plant response rating (0 to 100 scale) ([12]; Postemergence, 31 g ai/ha): 20; Pigweed plant response rating (0 to 100 scale) [12, 19]: 70; Ragweed plant response rating (0 to 100 scale) ([13]; Postemergence, 31 g ai/ha): 90; Ragweed plant response rating (0 to 100 scale) [13, 19]: 100; Wheat plant response rating (0 to 100 scale) ([14]; Postemergence, 31 g ai/ha): 0; Wheat plant response rating (0 to 100 scale) [14, 19]: 50; Plant response rating, Barnyardgrass (Flood) [15]: 35; Plant response rating, Ducksalad (Flood) [16]: 75; Plant response rating, Rice (Flood) (rice (Oryza sativa)): 15; Plant response rating, Sedge, Umbrella (Flood) [17]: 60"
